Assay results taken from ChEMBL document CHEMBL5137071, “Convenient Diaryl Ureas as Promising Anti-pseudo-allergic Agents” (J Med Chem, 2022).
Calls of active or inactive are those of the source. The rule behind the calls is not given here.

How the values were obtained:
[1] = system: LAD2; assay: Anti-pseudo allergic activity in human LAD2 cells assessed as inhibition of C48/80-induced beta-hexosaminidase release; assay type: functional, cell-based
[2] = system: LAD2; assay: Anti-pseudo allergic activity in human LAD2 cells assessed as inhibition of C48/80-induced beta-hexosaminidase release at 0.1 to 10 uM pretreated for 30 mins followed by C48/80 addition measured after 30 mins; assay type: functional, cell-based; conditions: dose 0.1-10 µM, time 1.0 hrs
[3] = system: LAD2; assay: Anti-pseudo allergic activity in human LAD2 cells assessed as inhibition of C48/80-induced histamine release at 0.1 to 10 uM pretreated for 30 mins followed by C48/80 addition measured after 30 mins by HPLC-MS analysis; assay type: functional, cell-based; conditions: dose 0.1-10 µM
[4] = system: LAD2; assay: Cytotoxicity against human LAD2 cells assessed as reduction in cell viability at 10 uM incubated for 24 hrs by Cell Counting Kit assay; assay type: toxicity, cell-based; conditions: lad2, 24 h
[5] = system: LAD2; assay: Anti-pseudo allergic activity in human LAD2 cells assessed as decrease in C48/80-induced calcium intracellular mobilization at 10 uM by fluorescence based assay; assay type: functional, cell-based
[6] = system: Mus musculus; assay: Anti-pseudo allergic activity against C48/80-induced passive cutaneous anaphylaxis C57 mouse model assessed as reduction in paw thickness rate at 0 to 1 mg/kg followed by C48/80 intravenously administration after 15 mins by Evans blue method; assay type: functional, organism-based; conditions: dose 0-1 mg/kg, route iv
[7] = system: HEK293; assay: Anti-pseudo allergic activity in HEK293 cells expressing H1R assessed as inhibition of histamine induced calcium release at 0 to 10 uM; assay type: functional, cell-based; conditions: Homo sapiens, dose 0-10 µM
[8] = system: Mus musculus; assay: Anti-pseudo allergic activity against passive cutaneous anaphylaxis-induced C57 mouse model assessed as reduction in C48/80-induced extravasation rate at 0 to 1 mg/kg followed by C48/80 intravenously administration after 15 mins by Evans blue method; assay type: functional, organism-based; conditions: dose 0-1 mg/kg, route iv
[9] = biological target: T1, Mas-related G-protein coupled receptor member X2 (Homo sapiens) (UniProt Q96LB1); assay: Antagonist activity at MRGPRX2 (unknown origin) expressed in HEK293 cells assessed as inhibition of calcium mobilization at upto 10 uM; assay type: functional, cell-based; conditions: filed as antagonist
T1 sequence (whole entry): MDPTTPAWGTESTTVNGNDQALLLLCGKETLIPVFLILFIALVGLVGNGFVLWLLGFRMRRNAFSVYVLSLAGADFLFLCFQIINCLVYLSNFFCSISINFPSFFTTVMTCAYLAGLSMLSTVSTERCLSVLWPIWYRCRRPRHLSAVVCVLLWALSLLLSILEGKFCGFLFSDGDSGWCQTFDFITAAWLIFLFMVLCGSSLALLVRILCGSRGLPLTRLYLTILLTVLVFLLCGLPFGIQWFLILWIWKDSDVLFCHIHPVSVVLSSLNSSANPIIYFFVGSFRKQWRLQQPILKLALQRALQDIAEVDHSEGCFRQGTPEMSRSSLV

[10] = system: Mus musculus; assay: Anti-pseudo allergic activity against C48/80-induced passive cutaneous anaphylaxis mouse model assessed as reduction in serum histamine level at 1 to 10 mg/kg followed by C48/80 administration intravenously after 30 mins post-compound administration measured every 5 mins for 30 mins by LC/MS/MS analysis; assay type: functional, organism-based; conditions: dose 1-10 mg/kg, route iv
[11] = system: Mus musculus; assay: Anti-pseudo allergic activity against C48/80-induced passive cutaneous anaphylaxis mouse model assessed as body temperature loss at 10 mg/kg followed by C48/80 administration intravenously after 30 mins post-compound administration measured every 5 mins for 30 mins; assay type: functional, organism-based; conditions: route iv, time 1.0 hrs
[12] = system: HEK293; assay: Anti-pseudo allergic activity in HEK293 cells assessed as prevention of calcium entry in presence of emodin at 0 to 10 uM; assay type: functional, cell-based; conditions: Homo sapiens, dose 0-10 µM
[13] = system: Mus musculus; assay: Anti-pseudo allergic activity against C48/80-induced passive cutaneous anaphylaxis mouse model assessed as increase in local tissue edema vascular permeability at 1 to 10 mg/kg followed by C48/80 administration after 30 mins post-compound administration measured every 5 mins for 30 mins; assay type: functional, organism-based; conditions: dose 1-10 mg/kg
[14] = system: Mus musculus; assay: Anti-pseudo allergic activity against passive cutaneous anaphylaxis-induced mouse model assessed as systemic symptoms at 1 to 10 mg/kg followed by C48/80 administration after 30 mins post-compound administration measured every 5 mins for 30 mins; assay type: functional, organism-based; conditions: dose 1-10 mg/kg
[15] = system: Mus musculus; assay: Anti-pseudo allergic activity against C48/80-induced passive cutaneous anaphylaxis mouse model assessed as decrease in degranulation level at 0 to 1 mg/kg followed by C48/80 addition measured after 45 mins by FITC-avidin staining based laser scanning confocal microscopy; assay type: functional, organism-based; conditions: dose 0-1 mg/kg

Compound | IC50 [1] [nM] | Activity [2] | inhibition [3] | Activity [4] | Activity [5] | Activity [6] | Activity [7] | Activity [8] | Activity [9] | Activity [10] | Activity [11] | Activity [12] | Activity [13] | Activity [14] | Activity [15]
O=C(Nc1ccc(F)cc1)Nc1ccc(C(F)(F)F)cc1Cl | 1400 | Active | Active | Non-Toxic | – | – | – | – | – | – | – | – | – | – | –
O=C(Nc1ccc(C(F)(F)F)cc1)Nc1cc(Br)cc(C(F)(F)F)c1 | 620 | Active | Active | Non-Toxic | Active | Active | Active | Active | Active | Active | Active | Active | Active | Active | Active
O=C(Nc1ccc(F)cc1)Nc1ccc(C(F)(F)F)cc1 | 1640 | Active | Active | Non-Toxic | – | – | – | – | – | – | – | – | – | – | –
O=C(Nc1ccc(C(F)(F)F)cc1)Nc1ccc(C(F)(F)F)cc1Cl | 800 | Active | Active | Non-Toxic | – | – | – | – | – | – | – | – | – | – | –
O=C(Nc1ccc(Br)cc1)Nc1ccc(Br)cc1 | – | – | – | Non-Toxic | – | – | – | – | – | – | – | – | – | – | –
O=C(Nc1ccc(C(F)(F)F)cc1)Nc1ccc(C(F)(F)F)cc1 | 970 | Active | Active | Non-Toxic | Active | Active | Active | Active | Active | Active | Active | Active | Active | Active | Active
O=C(Nc1cccc(C(F)(F)F)c1)Nc1cccc(C(F)(F)F)c1 | 1590 | Active | Active | Non-Toxic | – | – | – | – | – | – | – | – | – | – | –
O=C(Nc1ccc(Cl)c(C(F)(F)F)c1)Nc1ccc(C(F)(F)F)cc1Cl | 1100 | Active | Active | – | – | – | – | – | – | – | – | – | – | – | –
O=C(Nc1ccc(F)cc1)Nc1ccc(F)cc1 | – | – | – | Non-Toxic | – | – | – | – | – | – | – | – | – | – | –
O=C(Nc1ccc(C(F)(F)F)cc1Cl)Nc1ccc(C(F)(F)F)cc1Cl | 2160 | Active | Active | Non-Toxic | – | – | – | – | – | – | – | – | – | – | –
O=C(Nc1ccc(Cl)c(C(F)(F)F)c1)Nc1ccc(Cl)c(C(F)(F)F)c1 | 790 | Active | Active | Non-Toxic | Active | Active | Active | Active | Active | Active | Active | Active | Active | Active | Active
O=C(Nc1ccc(F)cc1)Nc1cc(Br)cc(C(F)(F)F)c1 | – | – | – | Non-Toxic | – | – | – | – | – | – | – | – | – | – | –
O=C(Nc1ccc(Br)cc1)Nc1ccc(C(F)(F)F)cc1Cl | 2510 | Active | Active | Non-Toxic | – | – | – | – | – | – | – | – | – | – | –
